Laboratory results from ChEMBL document CHEMBL2385054, “Lead optimization of a 4-aminopyridine benzamide scaffold to identify potent, selective, and orally bioavailable TYK2 inhibitors” (J Med Chem, 2013).
Values after ≈ are worked out from the molar mass of the structure shown.

How the values were obtained:
[1] = molecular target: Tyrosine-protein kinase Lck (Homo sapiens) (UniProt P06239); settings: 180 nM
[2] = molecular target: Cyclin-dependent kinase 5 (Homo sapiens) (UniProt Q00535); settings: 180 nM
Sequence of Cyclin-dependent kinase 5 (Homo sapiens) (Q00535 whole entry, looked up): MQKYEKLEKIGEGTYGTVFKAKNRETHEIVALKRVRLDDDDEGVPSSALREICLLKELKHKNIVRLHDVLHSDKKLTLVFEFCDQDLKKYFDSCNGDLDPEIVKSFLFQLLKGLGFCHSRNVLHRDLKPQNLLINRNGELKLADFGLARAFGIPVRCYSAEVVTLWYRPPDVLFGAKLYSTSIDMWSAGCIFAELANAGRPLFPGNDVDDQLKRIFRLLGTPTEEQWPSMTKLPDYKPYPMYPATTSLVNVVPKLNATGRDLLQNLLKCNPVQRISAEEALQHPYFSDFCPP

Homo sapiens = species: Homo sapiens; settings: 180 nM
[3] = molecular target: Ribosomal protein S6 kinase alpha-3 (Homo sapiens) (UniProt P51812); settings: 180 nM
Sequence of Ribosomal protein S6 kinase alpha-3 (Homo sapiens) (P51812 whole entry): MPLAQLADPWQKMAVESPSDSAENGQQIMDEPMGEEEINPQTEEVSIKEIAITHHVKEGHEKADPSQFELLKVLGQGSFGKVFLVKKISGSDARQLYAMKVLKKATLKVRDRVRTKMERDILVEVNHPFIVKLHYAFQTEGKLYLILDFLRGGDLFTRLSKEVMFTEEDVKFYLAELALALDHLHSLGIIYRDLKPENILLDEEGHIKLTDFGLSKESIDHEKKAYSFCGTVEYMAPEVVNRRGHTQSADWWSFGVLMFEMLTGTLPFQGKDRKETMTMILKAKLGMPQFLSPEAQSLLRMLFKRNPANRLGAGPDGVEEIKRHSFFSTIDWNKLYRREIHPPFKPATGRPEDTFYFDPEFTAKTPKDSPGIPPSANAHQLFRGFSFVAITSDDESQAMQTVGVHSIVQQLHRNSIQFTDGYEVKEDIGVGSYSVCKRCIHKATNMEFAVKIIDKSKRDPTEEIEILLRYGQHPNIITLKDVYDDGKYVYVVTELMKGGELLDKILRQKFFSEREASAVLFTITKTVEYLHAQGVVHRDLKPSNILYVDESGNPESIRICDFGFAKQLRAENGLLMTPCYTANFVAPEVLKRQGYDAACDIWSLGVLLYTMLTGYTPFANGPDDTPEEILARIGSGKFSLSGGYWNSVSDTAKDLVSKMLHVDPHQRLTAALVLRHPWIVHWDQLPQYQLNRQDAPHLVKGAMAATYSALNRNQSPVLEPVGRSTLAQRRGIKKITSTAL

[4] = molecular target: Ribosomal protein S6 kinase alpha-6 (Homo sapiens) (UniProt Q9UK32); settings: 180 nM
Sequence of Ribosomal protein S6 kinase alpha-6 (Homo sapiens) (Q9UK32 whole entry): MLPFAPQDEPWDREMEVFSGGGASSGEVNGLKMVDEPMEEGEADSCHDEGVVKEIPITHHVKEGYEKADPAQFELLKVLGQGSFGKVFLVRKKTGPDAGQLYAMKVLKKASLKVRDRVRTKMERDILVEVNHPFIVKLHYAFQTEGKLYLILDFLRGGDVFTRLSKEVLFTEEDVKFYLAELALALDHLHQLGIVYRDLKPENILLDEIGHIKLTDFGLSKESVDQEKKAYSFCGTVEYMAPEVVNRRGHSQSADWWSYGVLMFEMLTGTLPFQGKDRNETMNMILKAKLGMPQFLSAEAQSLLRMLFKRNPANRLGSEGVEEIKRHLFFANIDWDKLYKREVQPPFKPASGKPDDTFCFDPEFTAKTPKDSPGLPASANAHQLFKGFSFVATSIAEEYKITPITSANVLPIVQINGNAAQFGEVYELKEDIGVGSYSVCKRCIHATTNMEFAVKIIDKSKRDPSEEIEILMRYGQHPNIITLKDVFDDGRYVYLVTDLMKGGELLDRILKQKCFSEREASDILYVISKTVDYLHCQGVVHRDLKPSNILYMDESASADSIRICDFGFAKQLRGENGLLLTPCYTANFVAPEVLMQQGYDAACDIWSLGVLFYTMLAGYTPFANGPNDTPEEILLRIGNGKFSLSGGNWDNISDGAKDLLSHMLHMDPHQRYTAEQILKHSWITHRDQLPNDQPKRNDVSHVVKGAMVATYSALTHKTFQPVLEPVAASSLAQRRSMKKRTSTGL

[5] = molecular target: Ribosomal protein S6 kinase alpha-2 (Homo sapiens) (UniProt Q15349); settings: 180 nM
Sequence of Ribosomal protein S6 kinase alpha-2 (Homo sapiens) (Q15349 whole entry): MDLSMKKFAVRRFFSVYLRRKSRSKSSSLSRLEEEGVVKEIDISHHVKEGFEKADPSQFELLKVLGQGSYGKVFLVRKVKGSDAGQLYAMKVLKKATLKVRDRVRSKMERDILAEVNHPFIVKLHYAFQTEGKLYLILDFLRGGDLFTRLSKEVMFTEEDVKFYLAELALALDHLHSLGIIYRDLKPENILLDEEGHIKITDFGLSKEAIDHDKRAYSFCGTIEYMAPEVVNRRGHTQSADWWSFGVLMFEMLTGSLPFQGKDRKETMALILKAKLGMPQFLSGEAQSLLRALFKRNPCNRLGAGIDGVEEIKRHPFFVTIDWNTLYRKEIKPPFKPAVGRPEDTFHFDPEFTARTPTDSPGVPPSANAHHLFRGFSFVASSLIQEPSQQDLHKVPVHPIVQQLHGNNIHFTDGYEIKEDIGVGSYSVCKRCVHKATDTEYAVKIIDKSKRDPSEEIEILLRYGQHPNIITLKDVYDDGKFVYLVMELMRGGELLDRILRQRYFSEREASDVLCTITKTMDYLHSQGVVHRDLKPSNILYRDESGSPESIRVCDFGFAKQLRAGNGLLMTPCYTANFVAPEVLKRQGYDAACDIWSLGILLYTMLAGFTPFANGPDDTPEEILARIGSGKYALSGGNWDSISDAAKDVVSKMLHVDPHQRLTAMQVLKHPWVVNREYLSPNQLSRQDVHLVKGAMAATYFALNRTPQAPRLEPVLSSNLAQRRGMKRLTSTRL

in vivo [6] = settings: CD1, mouse, po, 100 mg/kg
in vivo [7] = settings: CD1, mouse, plasma, po, 100 mg/kg
in vivo [8] = settings: CD1, mouse, iv, 1 mg/kg
in vivo [9] = settings: CD1, mouse, po, 5 mg/kg
in vivo [10] = settings: CD1, mouse
in vivo [11] = settings: CD1, mouse, plasma, iv, 1 mg/kg
in vivo [12] = settings: Sprague-Dawley, rat, po, 5 mg/kg
in vivo [13] = settings: Sprague-Dawley, rat, iv, 1 mg/kg
in vivo [14] = settings: Sprague-Dawley, rat
in vivo [15] = settings: Sprague-Dawley, rat, plasma, iv, 1 mg/kg
in vitro [16] = settings: human, liver microsomes
in vitro [17] = settings: rat, liver microsomes
in vitro [18] = settings: mouse, liver microsomes
in vitro [19] = settings: human, liver microsomes; remark: listed apart in the source
in vitro [20] = settings: rat, plasma
in vitro [21] = settings: mouse, plasma
in vitro [22] = settings: human, plasma
in vitro [23] = settings: dog, MDCK
in vitro [24] = settings: dog, MDCK; remark: listed apart in the source
physchem [25] = settings: PBS buffer, pH 7.4
physchem [26] = settings: octanol/aqueous buffer, pH 7.4
in vivo [27] = settings: CD1, mouse, plasma, iv, 1 mg/kg; remark: listed apart in the source
in vivo [28] = settings: CD1, mouse, plasma, po, 5 mg/kg
Mus musculus [29] = species: Mus musculus; test: animal or person; settings: C57BL/6, po, read-out: INH
Mus musculus [30] = species: Mus musculus; test: animal or person; settings: C57BL/6, po, read-out: INH; remark: listed apart in the source
Mus musculus [31] = species: Mus musculus; test: animal or person; settings: C57BL/6, po, read-out: INH; remark: listed apart in the source
Mus musculus [32] = species: Mus musculus; test: animal or person; settings: C57BL/6, po, read-out: INH; remark: listed apart in the source

Sequence of Tyrosine-protein kinase Lck (Homo sapiens) (P06239 2-509 limits assumed): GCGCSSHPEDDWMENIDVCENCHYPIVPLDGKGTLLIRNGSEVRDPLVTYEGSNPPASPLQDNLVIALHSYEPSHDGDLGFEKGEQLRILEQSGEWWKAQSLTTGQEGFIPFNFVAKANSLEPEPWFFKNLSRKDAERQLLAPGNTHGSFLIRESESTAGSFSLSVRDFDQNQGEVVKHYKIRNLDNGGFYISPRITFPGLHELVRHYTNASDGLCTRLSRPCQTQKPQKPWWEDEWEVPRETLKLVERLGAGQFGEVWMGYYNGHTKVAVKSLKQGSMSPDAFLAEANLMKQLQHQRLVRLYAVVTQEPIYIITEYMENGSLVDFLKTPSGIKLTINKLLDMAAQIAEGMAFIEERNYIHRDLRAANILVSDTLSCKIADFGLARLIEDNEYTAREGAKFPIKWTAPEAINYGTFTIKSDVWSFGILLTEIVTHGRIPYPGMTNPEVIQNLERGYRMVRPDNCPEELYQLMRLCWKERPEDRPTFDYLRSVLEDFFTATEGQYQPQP

In the case of `N#Cc1cc(Cl)c(C(=O)Nc2ccnc(NC(=O)C3CC3)c2)c(Cl)c1`, the inhibition [1] is reported as 61%, the inhibition [2] is reported as 61% and the inhibition (Homo sapiens) is reported as 68%. For the same compound, the inhibition [3] was 73%, the inhibition [4] was 80% and the inhibition [5] was 80%. The Cmax (in vivo [6]) was 119 µM, the AUC (in vivo [7]) was 818 µM·h and the Vd (in vivo [8]) was 0.9 L/kg. The bioavailability (in vivo [9]) was 100%, the half-life (in vivo [10]) was 1 h and the clearance (in vivo [11]) was 13 mL/min/kg. For the same compound, the bioavailability (in vivo [12]) was 86%, the Vd (in vivo [13]) was 0.8 L/kg and the half-life (in vivo [14]) was 4.2 h. The clearance (in vivo [15]) was 3.1 mL/min/kg, the metabolised (in vitro [16]) was under 2% and the CLhep predicted (in vitro [17]) was 12 mL/min/kg. For the same compound, the CLhep predicted (in vitro [18]) was 38 mL/min/kg, the CLhep predicted (in vitro [19]) was 8 mL/min/kg and the fraction unbound (in vitro [20]) was 0.059. It also gave a fraction unbound (in vitro [21]) of 0.032, a fraction unbound (in vitro [22]) of 0.022 and an efflux ratio (in vitro [23]) of 1. For the same compound, the Papp A→B (in vitro [24]) was 15 ×10⁻⁶ cm/s, the solubility (physchem [25]) was 64 µg/mL (≈ 171 µM) and the logD (physchem [26]) was 3.2.

Compound `O=C(Nc1ccnc(NC(=O)C2CC2)c1)c1c(Cl)cc(-c2cn[nH]c2)cc1Cl` has a solubility (physchem [25]) of 1 µg/mL (≈ 2.4 µM).

`O=C(Nc1ccnc(NC(=O)[C@H]2C[C@H]2F)c1)c1c(Cl)cccc1Cl` showed a Cmax (in vivo [6]) of 47 µM, an AUC (in vivo [7]) of 50 µM·h and a bioavailability (in vivo [12]) of 100%. For the same compound, the Vd (in vivo [13]) was 1 L/kg, the half-life (in vivo [14]) was 1.8 h and the clearance (in vivo [15]) was 15 mL/min/kg. For the same compound, the CLhep predicted (in vitro [17]) was 21 mL/min/kg, the CLhep predicted (in vitro [18]) was 55 mL/min/kg and the CLhep predicted (in vitro [19]) was 11 mL/min/kg. For the same compound, the fraction unbound (in vitro [20]) was 0.048, the fraction unbound (in vitro [21]) was 0.018 and the fraction unbound (in vitro [22]) was 0.025. For the same compound, the efflux ratio (in vitro [23]) was 0.8, the Papp A→B (in vitro [24]) was 20 ×10⁻⁶ cm/s and the solubility (physchem [25]) was 126 µg/mL (≈ 342 µM). For the same compound, the logD (physchem [26]) was 2.9.

For `O=C(Nc1ccnc(NC(=O)[C@H]2C[C@H]2F)c1)c1c(F)cccc1Cl`, the bioavailability (in vivo [12]) was 100%, the Vd (in vivo [13]) was 1.2 L/kg and the half-life (in vivo [14]) was 0.5 h. For the same compound, the clearance (in vivo [15]) was 39 mL/min/kg, the CLhep predicted (in vitro [17]) was 20 mL/min/kg and the CLhep predicted (in vitro [18]) was 64 mL/min/kg. It also gave a CLhep predicted (in vitro [19]) of 4 mL/min/kg, a fraction unbound (in vitro [20]) of 0.122 and a fraction unbound (in vitro [21]) of 0.036. The fraction unbound (in vitro [22]) was 0.066, the efflux ratio (in vitro [23]) was 0.4 and the Papp A→B (in vitro [24]) was 30 ×10⁻⁶ cm/s. The solubility (physchem [25]) was 28 µg/mL (≈ 79.6 µM).

In the case of `O=C(Nc1ccnc(NC(=O)C2CC2)c1)c1c(Cl)cccc1Cl`, the clearance (in vivo [27]) is reported as 65 mL/min/kg, the AUC (in vivo [28]) is reported as 2.6 µM·h and the Vd (in vivo [8]) is reported as 0.6 L/kg. For the same compound, the bioavailability (in vivo [9]) was 73%, the half-life (in vivo [10]) was 0.3 h and the clearance (in vivo [11]) was 65 mL/min/kg. For the same compound, the bioavailability (in vivo [12]) was 100%, the Vd (in vivo [13]) was 1.1 L/kg and the half-life (in vivo [14]) was 1.2 h. The clearance (in vivo [15]) was 21 mL/min/kg, the CLhep predicted (in vitro [17]) was 16 mL/min/kg and the CLhep predicted (in vitro [18]) was 64 mL/min/kg. For the same compound, the CLhep predicted (in vitro [19]) was 7 mL/min/kg, the fraction unbound (in vitro [20]) was 0.041 and the fraction unbound (in vitro [21]) was 0.044. For the same compound, the fraction unbound (in vitro [22]) was 0.049, the efflux ratio (in vitro [23]) was 0.4 and the Papp A→B (in vitro [24]) was 30 ×10⁻⁶ cm/s. It also gave a logD (physchem [26]) of 3.4.

`N#Cc1cc(F)c(C(=O)Nc2ccnc(NC(=O)[C@H]3C[C@H]3F)c2)c(Cl)c1` showed a Cmax (in vivo [6]) of 108 µM, an AUC (in vivo [7]) of 917 µM·h and a bioavailability (in vivo [12]) of 70%. The Vd (in vivo [13]) was 2.3 L/kg, the half-life (in vivo [14]) was 40 h and the clearance (in vivo [15]) was 1 mL/min/kg. It also gave a CLhep predicted (in vitro [17]) of 11 mL/min/kg, a CLhep predicted (in vitro [18]) of 34 mL/min/kg and a CLhep predicted (in vitro [19]) of 8 mL/min/kg. The fraction unbound (in vitro [20]) was 0.09, the fraction unbound (in vitro [21]) was 0.05 and the fraction unbound (in vitro [22]) was 0.134. The efflux ratio (in vitro [23]) was 1.5, the Papp A→B (in vitro [24]) was 11 ×10⁻⁶ cm/s and the solubility (physchem [25]) was 53 µg/mL (≈ 141 µM). The logD (physchem [26]) was 2.5, the inhibition in vivo at 10 mg/kg (Mus musculus [29]) was 60% and the inhibition in vivo at 30 mg/kg (Mus musculus [30]) was 72%. It also gave an inhibition in vivo at 70 mg/kg (Mus musculus [31]) of 88% and an inhibition in vivo at 100 mg/kg (Mus musculus [32]) of 77%.

`O=C(Nc1ccnc(NC(=O)C2CC2)c1)c1c(Cl)cc(-c2nnc[nH]2)cc1Cl` gave a solubility (physchem [25]) of 2 µg/mL (≈ 4.79 µM).

Work on `N#Cc1cc(Cl)c(C(=O)Nc2ccnc(NC(=O)[C@H]3C[C@H]3F)c2)c(Cl)c1` yielded a Cmax (in vivo [6]) of 143 µM, an AUC (in vivo [7]) of 1090 µM·h and a bioavailability (in vivo [12]) of 100%. The Vd (in vivo [13]) was 1 L/kg, the half-life (in vivo [14]) was 4.1 h and the clearance (in vivo [15]) was 4.6 mL/min/kg. It also gave a CLhep predicted (in vitro [17]) of 10 mL/min/kg, a CLhep predicted (in vitro [18]) of 36 mL/min/kg and a CLhep predicted (in vitro [19]) of 11 mL/min/kg. The fraction unbound (in vitro [20]) was 0.082, the fraction unbound (in vitro [21]) was 0.017 and the fraction unbound (in vitro [22]) was 0.068. For the same compound, the efflux ratio (in vitro [23]) was 1.5, the Papp A→B (in vitro [24]) was 12 ×10⁻⁶ cm/s and the solubility (physchem [25]) was 74 µg/mL (≈ 188 µM). It also gave a logD (physchem [26]) of 2.8.
